Source: patent US11344534B2, “Cholinergic agonism for the treatment of pancreatic cancer” (priority 2017, dated 2022)
Entries after “also recorded” stand apart in the source; their conditions may differ.

What was measured:
Panc02 liver metastases = assay: Panc02 liver metastatic model (splenic injection, hemi-splenectomy); type: in vivo, mouse
From the text: A metastatic mouse model of pancreatic cancer has been developed. The procedure reported by Lei Zheng has been modified and involves resecting half the spleen followed by injection 2×10^6 Panc02 (or other PDAC cell lines) into the spleen (4, 5). (FIG. 3A, B). Mice are then sacrificed 30-60 days later. […] In combination with this metastatic model of pancreatic cancer, a surgical approach to achieve selective cholinergic denervation of the liver has been developed. This involves identifying and isolating the hepatic branch of the vagal nerve, followed by resection of the hepatic branch (FIG. 3E, F).
In additional preliminary studies, the effects of bethanechol on the progression of liver metastases and in survival were examined. […] There were 5-8 mice in each group.
Then, it was examined whether the direct parasympathetic signal influences the metastatic lesions. The liver is a major site of metastatic spread for pancreatic cancer as well as many other solid tumors, and many patients with advanced PDAC eventually die with liver metastases. In order to investigate the role of parasympathetic signaling on the growth of liver metastasis, a well established syngeneic model of metastatic pancreatic cancer (Soares et al. 2014) was utilized. […] Moreover, to confirm that the parasympathetic pathway directly regulated tumor cells at the liver metastatic site, expression of Ki67, CD44 and pEGFR was analyzed.
Liver metastatic model procedure was performed previously described. (Soares K C et al. 2014) Briefly, a left subcostal incision was performed along the line with the left ear and the spleen was exposed through the incision. The spleen was divided into upper and lower spleen by placing two Horizon medium size ligating clips in the center of the spleen. 150 μl of phosphate buffered saline was drawn up into a 27 G×⅝″ syringe and 100 μl of Panc02 (2×10^6) cells was also drawn up into the same syringe and the cells were injected slowly into the exposed lower-hemispleen. Lower hemisplenectomy was performed by ligating pancreas spleen vessel and cutting above.
However, given that many PDAC patients with metastatic disease (Stage IV) eventually die with liver metastases, the effect of parasympathetic signaling on the growth of hepatic lesions was examined utilizing a well-established syngeneic model of metastatic PDAC^32. […] Moreover, to confirm that the parasympathetic pathway directly regulated tumor cells at the liver metastatic site, expression of Ki67 (FIGS. 12H-K), p-EGFR (FIGS. 12L-O) and CD44 (FIGS. 12P-S) were analyzed immunohistochemically. […]

[1] = tested on: Kras^+/LSL-G12D mutant spheres; assay: 3D Matrigel sphere culture of Kras mutant (Ad-Cre) pancreatic acinar cells; type: cell-based, mouse
Experimental: Cholinergic stimulation could in theory promote cancer indirectly through effects on stromal cells, or directly through effects on pancreatic epithelial cells. To determine whether cholinergic stimulation promoted tumor development in part through muscarinic receptors on cancer cells, the sphere forming capacity of K-Ras^+/LSL-G12D mutant pancreatic acinar cells was assessed in a 3D Matrigel culture system, with or without muscarinic stimulation. K-Ras^+/LSL-G12D mutant spheres were generated from K-Ras^+/LSL-G12D pancreatic acinar cells by treatment with adenoviral delivered Cre (Ad-Cre).
3D cultures were performed as described previously (Wescott et al., 2009). Organoids were cultured for 5 days before analysis. Adenoviral delivered Cre (Ad-Cre) was added to the cultures and medium was changed after 12 hours. […] Sphere size and […] were analyzed using ImageJ software.
To determine whether cholinergic stimulation suppresses tumor development in part through specific muscarinic receptors on cancer cells, the sphere forming capacity of Kras^+/LSL-G12D pancreatic acinar cells in a 3D Matrigel culture system in the absence and presence of muscarinic agonists and antagonists was assessed. Kras^+/LSL-G12D mutant spheres were generated from Kras^+/LSL-G12D mice by delivery of an adenoviral Cre (Ad-Cre).
3D cultures were performed as described previously^18. Organoids were cultured for 5 days before analysis. Adenoviral delivered Cre (Ad-Cre) was added to the cultures and medium was changed after 12 hours. […] Sphere size and number were analyzed using ImageJ software.

[2] = tested on: human PDAC cell lines (MiaPaca2, Panc1); assay: MTT assay, human PDAC cell lines; type: cell-based
Experimental: (§1) Cell proliferation in each cell line was assessed with a 3-(4,5-dimethylthiazol-2yl)-2,5-diphenyltetrazolium bromide (MTT) assay kit (Sigma) in accordance with the manufacturer's instructions. 3×10^3 cells were grown in 96-well plate to around ˜70% confluent, changed the 0.5% FBS medium, added the drugs respectively and incubated them for further 72 hrs incubation in a typical CO2 incubator (˜20% O2). Treated cells were rinsed twice with PBS, incubated in 10 ll MTT solution for 4 hr at 37° C., and 100 uL DMSO was added to each well. The absorbance of each well was measured at 570 nm using Tilter-Tech 96-well multiscanner (Becton Dickinson, Heidelberg, Germany). The relative number of viable cells compared with the number of cells without drug treatment was expressed as percent cell viability using the following formula:
(§2) Cell proliferation in each cell line was assessed with a 3-(4,5-dimethylthiazol-2yl)-2,5-diphenyltetrazolium bromide (MTT) assay kit (Sigma) in accordance with the manufacturer's instructions. 3×10^3 cells were grown in 96-well plate to ˜70% confluency, the media was changed to 0.5% FBS medium, the respective drugs were added, and they were incubated for an additional 72 hours in a CO2 incubator (˜5% CO2). Treated cells were rinsed twice with PBS, incubated in 10 ul MTT (5 mg/ml PBS) solution for 4 hours at 37° C., and 100 uL DMSO was then added to each well. The absorbance of each well was measured at 570 nm using a Tilter-Tech 96-well multiscanner (Becton Dickinson, Heidelberg, Germany). The relative number of viable cells compared with the number of cells without drug treatment was expressed as percent cell viability using the following formula: cell viability (%)=A570 of treated cells/A570 of untreated cells.

[3] = tested on: murine PDAC cell lines (Panc02, K8282); assay: MTT assay, murine PDAC cell lines; type: cell-based, mouse; conditions: agonist added to antagonist
Experimental: as §1, §2

[4] = tested on: CD44+CD24+EpCAM+ population of Panc1 and BxPC3 cells; assay: Flow cytometry (FACS) of cancer stem cell population; type: cell-based, human; conditions: for CD44+CD24+EpCAM+ cancer stem cell population (FACS): human pancreatic cancer cells, 72 hours pilocarpine
Experimental: Panc-1 cells were grown in 6-well plate to around ˜70% confluent, changed the 0.5% FBS medium, added the drugs respectively and incubated them for further 72 hrs incubation in a typical CO2 incubator (˜20% O2). Afterwards, cells were kept on ice in blocking solution (PBS pH 7.2 containing ? 3% bovine serum albumin, 2 mM EDTA) for 20 minutes. Cells were then stained with a PE-conjugated antibody against CD24, a FITC-conjugated antibody against CD44, and an APC-conjugated antibody against CD326 (1:100—in blocking solution) on ice for 30 minutes. The cells were then washed, reconstituted in sorting buffer (PBS pH 7.2 containing 0.5% bovine serum albumin, 2 mM EDTA)+DAPI and analyzed using a BD FACSAria II.
Panc1 and BxPC3 cells were grown in 6-well plate to ˜70% confluency, the media was changed to 0.5% FBS medium, the respective drugs were added, and they were incubated for an additional 72 hrs in a typical CO2 incubator (˜5% CO2). Subsequently, cells were kept on ice in blocking solution (PBS pH 7.2 containing 3% bovine serum albumin, 2 mM EDTA) for 20 minutes. Cells were then stained with a PE-conjugated antibody against CD24, a FITC-conjugated antibody against CD44, and an APC-conjugated antibody against CD326 (1:100 in blocking solution) on ice for 30 minutes. The cells were then washed, reconstituted in sorting buffer (PBS pH 7.2 containing 0.5% bovine serum albumin, 2 mM EDTA)+DAPI and analyzed using a BD FACSAria II.

Chrm1 = assay: qRT-PCR of muscarinic receptor expression, murine PDAC cell lines; type: cell-based, mouse; conditions: murine PDAC cell lines (Panc02 and K8282), compared to control
[5] = Panc02 liver metastatic model, at necropsy
[6] = Panc02 liver metastatic model, bethanechol vs untreated control
[7] = day 5, pilocarpine 1 mM, scopolamine 10 μM, McN-34A 50 μM, pirenzepine 50 μM, vs controls

Row | Structure (SMILES) | (maximum) tumor volume (Panc02 liver metastases; [5]) | number of tumors (Panc02 liver metastases; [5]) | survival (Panc02 liver metastases; Panc02 liver metastatic model, bethanechol in drinking water, controls 29 days) | survival (in words) (Panc02 liver metastases; [6]) | tumor growth (Panc02 liver metastases; [6]) | immunohistochemical markers: Ki67, C44, F4/80, nerves (peripherin or neurofilament), phospho-EGFR and phosphor-PI3K (Panc02 liver metastases; after bethanechol treatment) | expression of Ki67, p-EGFR and CD44 in liver metastases (Panc02 liver metastases; bethanechol group vs untreated control) | reduction in Ki-67 staining of Panc02 liver mets (Panc02 liver metastases; mice, bethanechol treatment) | number of spheres [1, 7] | size of spheres [1, 7] | sphere formation and growth of Kras mutant spheres ([1]; oncogenic K-Ras allele activated by adeno-Cre virus) | proliferation (MTT assay) ([2]; 72 hours, 0.5% FBS medium) | increase in proliferation due to muscarinic antagonists ([2]; agonist added to antagonist) | increase in proliferation due to muscarinic antagonists [3] | CD44+CD24+EpCAM+ cancer stem cell population (FACS) [4] | CD44+CD24+EpCAM+ cancer stem cell population (FACS) ([4]; listed as Pilocarpine) | suppression of CD44+CD24+EpCAM+ cancer stem cells ([4]; pilocarpine at doses of 100-500 rμM, preliminary studies) | Chrm1 expression (Chrm1)
1 | CC(C[N+](C)(C)C)OC(N)=O (stereo not drawn) [bethanechol, 2-[(aminocarbonyl)oxy]-N,N,N-trimethyl-1-propanaminium] | inhibited | inhibited | 41 days | significantly longer; also recorded: extend; also recorded: significantly prolonged | inhibited; also recorded: suppressed | decreased | significantly decreased; also recorded: suppression | 50% | – | – | – | – | – | – | – | – | – | –
2 | CC[C@@H]1C(=O)OC[C@@H]1Cc1cncn1C [pilocarpine, (3S,4R)-3-ethyl-4-[(3-methylimidazol-4-yl)methyl]oxolan-2-one] | – | – | – | – | – | – | – | – | significantly fewer; also recorded: reduced | smaller | significant inhibitory effect; also recorded: decrease; also recorded: suppresses | suppressed | blocked; also recorded: inhibited to some extent | blocked; also recorded: inhibited to some extent | marked suppression; also recorded: reduced; also recorded: Dose dependent decrease | remarkable suppression | > 50% | decreased; also recorded: lower
